In brackets after ≈: the same amount, converted by molar mass.
Assays:
MCF7 [1] = assay: Antiproliferative activity against human MCF7 cells; type: functional, cell-based; conditions: Homo sapiens, MCF7
A2780 [2] = assay: Antiproliferative activity against human A2780 cells; type: functional, cell-based
A2780 [3] = assay: Antiproliferative activity against cisplatin resistant human A2780 cells; type: functional, cell-based
MCF7 [4] = assay: Antiproliferative activity against mitoxantrone resistant human MCF7 cells; type: functional, cell-based
[5] = Antiproliferative activity against HUVEC cells; type: toxicity, cell-based; conditions: human
Plasmodium falciparum [6] = assay: Antimalarial activity against CQ-sensitive Plasmodium falciparum 3D7; type: functional, organism-based
Plasmodium berghei [7] = assay: Antimalarial activity against liver stage Plasmodium berghei; type: functional, organism-based
Plasmodium falciparum [8] = assay: Antimalarial activity against CQ-resistant Plasmodium falciparum W2; type: functional, organism-based
Plasmodium falciparum [9] = assay: Antimalarial activity against CQ-sensitive Plasmodium falciparum D6; type: functional, organism-based
Plasmodium berghei [10] = assay: Antiplasmodial activity against Plasmodium berghei infected in mouse assessed as increase in mean survival time at 100 mg/kg, po administered for 3 days (reference value: 7.6 day); type: functional; conditions: time 3 day
Plasmodium berghei [11] = assay: Antiplasmodial activity against Plasmodium berghei infected in mouse assessed as reduction in parasitaemia at 35 umol/kg, sc administered for 4 days; type: functional; set-up: scale not given: the % may be the effect or the level left; conditions: dose 35 µmol/kg, time 4 day
Plasmodium berghei [12] = assay: Antiplasmodial activity against Plasmodium berghei infected in mouse assessed as reduction in parasitaemia at 105 umol/kg, po; type: functional; set-up: scale not given: the % may be the effect or the level left; conditions: dose 105 µmol/kg
Hemozoin = assay: Inhibition of beta-hematin formation
Plasmodium berghei [13] = assay: Inhibition of hemozoin formation in Plasmodium berghei infected in mouse; type: functional
A2780 [14] = assay: Induction of apoptosis in human A2780 cells assessed as accumulation at G2/M phase at 5 uM (reference value: 10%); type: functional
MCF7 [15] = assay: Induction of apoptosis in human MCF7 cells assessed as accumulation at G2/M phase at 10 uM (reference value: 10%); type: functional
NCI-H460 = assay: Antiproliferative activity against human NCI-H460 cells; type: functional, cell-based
PANC-1 = assay: Antiproliferative activity against human PANC-1 cells; type: functional, cell-based
MIA PaCa-2 = assay: Antiproliferative activity against human MIA PaCa-2 cells; type: functional, cell-based
HT-29 = assay: Antiproliferative activity against human HT-29 cells; type: functional, cell-based
A-375 = assay: Antiproliferative activity against human A-375 cells; type: functional, cell-based
MV4-11 = assay: Antiproliferative activity against human MV4-11 cells; type: functional, cell-based
[16] = molecular target: Histone-lysine N-methyltransferase, H3 lysine-79 specific (Homo sapiens, UniProt Q8TEK3); assay: Inhibition of DOT1L (unknown origin)
Plasmodium falciparum [17] = assay: Antimalarial activity against CQ-resistant Plasmodium falciparum Dd2; type: functional, organism-based
Plasmodium berghei [18] = assay: Antimalarial activity against Plasmodium berghei ANKA infected in mouse assessed increase in survival time (reference value: 6.8 day); type: functional
HCT-116 = assay: Cytotoxicity against human HCT-116 cells; type: functional, cell-based
[19] = molecular target: Serine/threonine-protein kinase mTOR (Homo sapiens, UniProt P42345); assay: Inhibition of mTOR (unknown origin)
[20] = molecular target: Dual specificity mitogen-activated protein kinase kinase 1 (Homo sapiens, UniProt Q02750); assay: Inhibition of MEK1 (unknown origin)
[21] = molecular target: T1, Epidermal growth factor receptor (Homo sapiens, UniProt P00533)
HeLa [22] = assay: Cytotoxicity against human HeLa cells at 2.5 uM; type: functional
A549 = assay: Cytotoxicity against human A549 cells; type: functional, cell-based
K562 = assay: Cytotoxicity against human K562 cells; type: functional, cell-based
[23] = molecular target: Phosphatidylinositol 4,5-bisphosphate 3-kinase catalytic subunit gamma isoform (Homo sapiens, UniProt P48736); assay: Inhibition of PI3K gamma (unknown origin)
Plasmodium falciparum [24] = assay: Selectivity index, ratio of IC50 for Chloroquine resistant Plasmodium falciparum W2 to IC50 for Chloroquine sensitive Plasmodium falciparum 3D7; type: functional
HepG2 = assay: Cytotoxicity against human HepG2 cells; type: functional, cell-based; conditions: Homo sapiens, HepG2
[25] = molecular target: T1, Epidermal growth factor receptor; assay: Inhibition of EGFR (unknown origin)
HeLa [26] = assay: Antiproliferative activity against human HeLa cells; type: functional, cell-based
MDA-MB-231 = assay: Antiproliferative activity against human MDA-MB-231 cells; type: functional, cell-based
KG-1a = assay: Antiproliferative activity against human KG-1a cells; type: functional, cell-based
[27] = molecular target: Cathepsin B (Homo sapiens) (UniProt P07858); assay: Inhibition of human cathepsin B endopeptidase activity at 50 uM relative to control

T1 sequence (P00533 whole entry): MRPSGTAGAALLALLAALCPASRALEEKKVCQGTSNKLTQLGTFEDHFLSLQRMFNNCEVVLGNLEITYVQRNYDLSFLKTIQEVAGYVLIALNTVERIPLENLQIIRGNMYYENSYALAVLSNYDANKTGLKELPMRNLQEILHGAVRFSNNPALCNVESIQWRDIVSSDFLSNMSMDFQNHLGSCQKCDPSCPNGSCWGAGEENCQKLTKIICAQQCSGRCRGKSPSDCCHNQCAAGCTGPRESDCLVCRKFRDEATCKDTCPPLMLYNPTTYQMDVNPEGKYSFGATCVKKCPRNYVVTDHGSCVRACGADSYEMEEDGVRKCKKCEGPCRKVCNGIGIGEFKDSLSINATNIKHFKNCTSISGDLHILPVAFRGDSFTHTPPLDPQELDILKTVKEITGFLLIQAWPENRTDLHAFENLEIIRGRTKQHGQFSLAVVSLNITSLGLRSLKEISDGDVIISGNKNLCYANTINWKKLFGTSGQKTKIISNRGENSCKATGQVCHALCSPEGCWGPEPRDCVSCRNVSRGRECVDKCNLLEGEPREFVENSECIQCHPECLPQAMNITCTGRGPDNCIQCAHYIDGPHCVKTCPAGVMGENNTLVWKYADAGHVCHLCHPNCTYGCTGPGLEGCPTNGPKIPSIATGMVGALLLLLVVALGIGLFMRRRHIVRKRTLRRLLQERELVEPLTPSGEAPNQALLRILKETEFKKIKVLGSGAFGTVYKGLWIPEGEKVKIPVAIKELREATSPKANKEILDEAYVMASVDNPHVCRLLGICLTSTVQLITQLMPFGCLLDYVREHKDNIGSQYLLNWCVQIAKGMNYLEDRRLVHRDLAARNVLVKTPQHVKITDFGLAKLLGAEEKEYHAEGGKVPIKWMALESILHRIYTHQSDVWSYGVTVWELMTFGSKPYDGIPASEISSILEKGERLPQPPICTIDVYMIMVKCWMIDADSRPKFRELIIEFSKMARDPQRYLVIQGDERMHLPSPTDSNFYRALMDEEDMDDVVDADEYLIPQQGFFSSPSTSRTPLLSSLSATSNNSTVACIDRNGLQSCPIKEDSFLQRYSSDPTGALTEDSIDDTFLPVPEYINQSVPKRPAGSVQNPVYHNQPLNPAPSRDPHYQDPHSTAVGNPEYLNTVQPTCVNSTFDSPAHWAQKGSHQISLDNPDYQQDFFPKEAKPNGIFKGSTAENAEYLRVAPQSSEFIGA
Histone-lysine N-methyltransferase, H3 lysine-79 specific, sequence (Q8TEK3 whole entry): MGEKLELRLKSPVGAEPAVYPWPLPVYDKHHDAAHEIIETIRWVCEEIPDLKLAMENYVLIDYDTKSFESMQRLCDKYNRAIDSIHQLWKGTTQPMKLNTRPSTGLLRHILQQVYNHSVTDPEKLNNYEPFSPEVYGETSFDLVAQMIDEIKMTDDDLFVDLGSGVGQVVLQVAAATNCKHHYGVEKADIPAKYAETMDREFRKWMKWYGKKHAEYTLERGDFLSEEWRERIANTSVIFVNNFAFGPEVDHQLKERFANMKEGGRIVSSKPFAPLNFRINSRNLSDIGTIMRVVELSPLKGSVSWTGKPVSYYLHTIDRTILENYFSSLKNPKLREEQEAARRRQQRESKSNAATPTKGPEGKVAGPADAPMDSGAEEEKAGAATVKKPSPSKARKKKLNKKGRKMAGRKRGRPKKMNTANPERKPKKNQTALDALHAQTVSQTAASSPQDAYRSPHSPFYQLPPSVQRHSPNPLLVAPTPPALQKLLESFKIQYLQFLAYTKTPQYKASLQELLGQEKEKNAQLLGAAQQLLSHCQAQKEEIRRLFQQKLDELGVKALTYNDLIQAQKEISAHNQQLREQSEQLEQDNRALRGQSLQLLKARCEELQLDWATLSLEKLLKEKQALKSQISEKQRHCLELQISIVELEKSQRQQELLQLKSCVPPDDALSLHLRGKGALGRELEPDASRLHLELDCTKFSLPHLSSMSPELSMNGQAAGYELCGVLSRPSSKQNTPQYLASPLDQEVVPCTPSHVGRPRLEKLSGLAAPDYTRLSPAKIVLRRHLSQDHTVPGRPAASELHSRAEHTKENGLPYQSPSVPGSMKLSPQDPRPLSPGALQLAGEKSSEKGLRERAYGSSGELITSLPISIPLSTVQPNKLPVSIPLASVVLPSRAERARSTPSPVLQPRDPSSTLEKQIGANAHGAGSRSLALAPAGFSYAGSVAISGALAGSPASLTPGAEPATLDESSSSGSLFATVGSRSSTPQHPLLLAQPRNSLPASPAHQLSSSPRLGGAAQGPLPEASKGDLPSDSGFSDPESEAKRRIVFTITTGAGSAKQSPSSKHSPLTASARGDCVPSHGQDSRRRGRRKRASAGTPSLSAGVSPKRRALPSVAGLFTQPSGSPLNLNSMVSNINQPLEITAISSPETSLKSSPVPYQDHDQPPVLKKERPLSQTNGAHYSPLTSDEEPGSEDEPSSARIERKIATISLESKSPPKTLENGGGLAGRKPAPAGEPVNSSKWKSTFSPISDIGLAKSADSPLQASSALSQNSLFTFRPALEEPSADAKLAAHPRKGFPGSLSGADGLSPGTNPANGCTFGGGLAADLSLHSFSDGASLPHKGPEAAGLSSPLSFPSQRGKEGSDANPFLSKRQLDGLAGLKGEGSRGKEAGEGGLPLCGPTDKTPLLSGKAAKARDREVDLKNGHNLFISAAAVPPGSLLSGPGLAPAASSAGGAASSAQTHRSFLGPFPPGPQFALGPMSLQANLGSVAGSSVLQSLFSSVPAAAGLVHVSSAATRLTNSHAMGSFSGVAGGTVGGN
Dual specificity mitogen-activated protein kinase kinase 1, sequence (Q02750 whole entry): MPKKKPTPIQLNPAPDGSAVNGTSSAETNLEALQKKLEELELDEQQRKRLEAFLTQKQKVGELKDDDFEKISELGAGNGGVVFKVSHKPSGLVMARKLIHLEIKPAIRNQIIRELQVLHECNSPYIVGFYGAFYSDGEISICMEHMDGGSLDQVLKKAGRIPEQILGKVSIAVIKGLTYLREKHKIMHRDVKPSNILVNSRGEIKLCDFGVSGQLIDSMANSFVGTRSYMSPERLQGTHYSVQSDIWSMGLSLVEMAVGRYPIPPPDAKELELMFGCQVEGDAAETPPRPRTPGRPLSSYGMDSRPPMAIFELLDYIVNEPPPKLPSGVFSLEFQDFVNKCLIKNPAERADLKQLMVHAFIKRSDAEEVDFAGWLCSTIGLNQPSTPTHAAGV
Phosphatidylinositol 4,5-bisphosphate 3-kinase catalytic subunit gamma isoform, sequence (P48736 whole entry, canonical isoform): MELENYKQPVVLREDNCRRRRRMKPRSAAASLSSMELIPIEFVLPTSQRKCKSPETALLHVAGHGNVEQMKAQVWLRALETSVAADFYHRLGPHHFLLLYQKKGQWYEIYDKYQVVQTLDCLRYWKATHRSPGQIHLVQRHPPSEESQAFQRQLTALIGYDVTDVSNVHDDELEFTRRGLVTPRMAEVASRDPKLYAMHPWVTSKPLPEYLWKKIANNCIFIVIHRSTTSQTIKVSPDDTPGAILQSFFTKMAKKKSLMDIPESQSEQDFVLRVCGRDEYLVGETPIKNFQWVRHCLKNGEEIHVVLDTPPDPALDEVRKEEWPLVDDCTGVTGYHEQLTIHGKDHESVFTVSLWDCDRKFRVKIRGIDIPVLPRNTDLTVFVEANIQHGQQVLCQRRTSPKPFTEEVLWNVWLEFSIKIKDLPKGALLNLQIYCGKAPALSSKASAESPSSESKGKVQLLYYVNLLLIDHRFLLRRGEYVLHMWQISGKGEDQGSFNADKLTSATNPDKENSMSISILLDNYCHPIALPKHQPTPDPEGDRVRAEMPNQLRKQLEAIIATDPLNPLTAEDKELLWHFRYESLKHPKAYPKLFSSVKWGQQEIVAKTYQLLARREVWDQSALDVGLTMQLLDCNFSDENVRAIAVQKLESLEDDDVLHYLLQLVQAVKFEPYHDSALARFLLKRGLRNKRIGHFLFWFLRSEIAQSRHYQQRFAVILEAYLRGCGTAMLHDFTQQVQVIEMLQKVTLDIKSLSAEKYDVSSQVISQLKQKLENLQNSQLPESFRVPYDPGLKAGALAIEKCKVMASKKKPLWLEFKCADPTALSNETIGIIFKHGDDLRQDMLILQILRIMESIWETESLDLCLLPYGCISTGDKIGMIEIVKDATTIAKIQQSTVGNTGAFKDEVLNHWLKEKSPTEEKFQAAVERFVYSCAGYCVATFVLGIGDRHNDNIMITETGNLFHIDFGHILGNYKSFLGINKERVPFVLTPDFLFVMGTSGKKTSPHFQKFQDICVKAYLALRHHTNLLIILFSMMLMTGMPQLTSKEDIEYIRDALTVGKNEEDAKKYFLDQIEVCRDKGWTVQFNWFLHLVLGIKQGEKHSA

COc1ccc(/C=C/c2cc(Nc3cc(OC)c(OC)c(OC)c3)c3c(OC)c(OC)c(OC)cc3n2)cc1OC
IC50 (MCF7 [1]): 0.5 µM
IC50 (A2780 [2]): 0.5 µM
IC50 (A2780 [3]): 0.5 µM
IC50 (MCF7 [4]): 0.5 µM
IC50 [5]: 7.82 µM

COc1cc(C)c2c(Oc3ccc(F)c(F)c3)c(OC)cc(NC(C)CCON=C(C)C)c2n1 (stereo unspecified)
IC50 (Plasmodium falciparum [6]): 0.38 µM
IC50 (Plasmodium berghei [7]): 5.4 µM

Cc1c(Cl)ccc2cc(/C=C/C(=O)c3ccc(Br)cc3)c(Cl)nc12
IC50 (Plasmodium falciparum [8]): 0.038 µM
IC50 (Plasmodium falciparum [9]): < 0.05 µM
Time (Plasmodium berghei [10]): 11.8 days

C[C@@H]1CCC2[C@@H](C)[C@H](OC(=O)CCC(=O)OCCNc3ccnc4cc(Cl)ccc34)O[C@@H]3O[C@@]4(C)CC[C@@H]1[C@@]23OO4 (stereo partly specified)
Activity (Plasmodium berghei [11]): 95.2%
Activity (Plasmodium berghei [12]): 78.6%
IC50 (Hemozoin): 560 µM
inhibition (INH) (Plasmodium berghei [13]): 71.9%

COc1cc(C(=O)/C=C/c2c(Cl)nc3c(C(=O)c4ccccc4)cccc3c2OC)cc(OC)c1OC
Activity (A2780 [14]): 50%
Activity (MCF7 [15]): 50%

COc1nc2ccccc2cc1/C=C1/C=C(c2ccccc2)NC1=O
IC50 (NCI-H460): 1.9 µM
IC50 (PANC-1): 1.9 µM
IC50 (MIA PaCa-2): 1.9 µM
IC50 (HT-29): 1.9 µM
IC50 (A-375): 1.9 µM

Cc1cc(Nc2ccc3nc(C)cc(N)c3c2)nc(NCCCCCCNC(=O)Nc2cc(C(F)(F)F)cc(C(F)(F)F)c2)n1
IC50 (MV4-11): 1.29 µM
IC50 [16]: 3.55 µM

CN(C)CCNc1cc(/C=C/c2ccc(Br)cc2)nc2ccccc12
IC50 (Plasmodium falciparum [17]): 0.033 µM

COC(=O)[C@H](Cc1c[nH]c2ccccc12)NC(=O)CSc1ccnc2cc(Cl)ccc12
inhibition (Hemozoin; concentration not given here): 61.1%
Time (Plasmodium berghei [18]): 24.6 days

COc1cc(NC(C)CCCN)c2ncccc2c1 (stereo unspecified) [PRIMAQUINE]
IC50 (Plasmodium berghei [7]): 1.1 µM

Cc1c(Cc2cccc(N(C)S(=O)(=O)CCCNCCCC(=O)N3CCN(c4ccc(Nc5c(C(N)=O)cnc6ccc(-c7cnc8ccccc8c7)cc56)cc4C(F)(F)F)CC3)c2)c(=O)oc2cc(OC(=O)N(C)C)ccc12
GI50 (HCT-116): 4.66 µM
IC50 [19]: 0.19 µM
IC50 [20]: 0.98 µM

COc1ccc2nc(Cl)c(/C=C/C(=O)c3ccc(C)cc3)cc2c1
IC50 [21]: 0.0371 µM

CSc1nc2ccccc2cc1/C=C1/C=C(c2ccccc2)NC1=O
IC50 (NCI-H460): 1.9 µM
IC50 (PANC-1): 1.9 µM
IC50 (MIA PaCa-2): 1.9 µM
IC50 (HT-29): 1.9 µM
IC50 (A-375): 1.9 µM

COc1cc2nc(N3CCCN(C)CC3)nc(NC3CCN(Cc4ccccc4)CC3)c2cc1OC
Activity (HeLa [22]): 63%

COc1ccc2nc(Cl)c(C3CC(c4ccc(C)cc4)=NN3c3nc(-c4ccc(F)cc4)cs3)cc2c1 (stereo unspecified)
IC50 [21]: 0.0318 µM

COc1ccc(-c2cc(C(=O)N/N=C(\C=C\c3ccc(Cl)cc3)c3ccc(N)cc3)c3ccccc3n2)cc1
IC50 (A549): 1.91 µM
IC50 (K562): 1.91 µM
IC50 [23]: 0.052 µM

CN1CCN(CCNCc2ccc(-c3cc(-c4ccc(CNCCN5CCN(C)CC5)cc4)c4ccccc4n3)cc2)CC1
IC50 (Plasmodium falciparum [6]): 2.42 µM
IC50 (Plasmodium falciparum [8]): 0.13 µM
Ratio IC50 (Plasmodium falciparum [24]): 20

Cc1ccc2nc(/C=C/c3ccc(N(C)C)cc3)cc(-c3nnc(N)s3)c2c1
IC50 (HepG2): 7.7 µg/mL (≈ 19.9 µM)
IC50 (HCT-116): 7.7 µg/mL (≈ 19.9 µM)
IC50 [25]: 1.11 µM

Cc1ccc(Nc2nnc(-c3cc(-c4ccc(Br)cc4)nc4ccccc34)o2)cc1
IC50 (HeLa [26]): 0.05 µM
IC50 (MDA-MB-231): 0.54 µM
IC50 (KG-1a): 1.21 µM

O=[N+]([O-])c1ccc(O)c2ncccc12
inhibition [27]: 27.7%

— ChEMBL document CHEMBL5230155, “Recent contributions of quinolines to antimalarial and anticancer drug discovery research” (Eur J Med Chem, 2021)
